Like-named read-outs stand apart in the source and are kept apart here.
What was measured:
TcdB protease = TcdB protease (Clostridioides difficile, UniProt P18177); assay: biochemical; set-up: species or system Clostridium difficile
TcdB CPD = target: T1, TcdB CPD (Clostridioides difficile, UniProt P18177); assay: biochemical; set-up: species or system Clostridium difficile
T1 construct: The compounds were screened against the recombinantly expressed cysteine protease domain; made in house

TcdB = TcdB (Clostridioides difficile, UniProt P18177); assay: Mouse TcdB toxigenic model; assay type: in vivo; settings: mice i.p. 25 ng TcdB pretreated with 100 nM ebselen
full length TcdB = full length TcdB (Clostridioides difficile, UniProt P18177); settings: read-out: IC50 of inhibition of labeling of the CPD, IP6 activated, AWP-19 labeling
[1] = test system: human foreskin fibroblast (HFF cells); assay: cells; assay type: cell-based

TcdB protease, sequence (P18177 544-797 limits assumed): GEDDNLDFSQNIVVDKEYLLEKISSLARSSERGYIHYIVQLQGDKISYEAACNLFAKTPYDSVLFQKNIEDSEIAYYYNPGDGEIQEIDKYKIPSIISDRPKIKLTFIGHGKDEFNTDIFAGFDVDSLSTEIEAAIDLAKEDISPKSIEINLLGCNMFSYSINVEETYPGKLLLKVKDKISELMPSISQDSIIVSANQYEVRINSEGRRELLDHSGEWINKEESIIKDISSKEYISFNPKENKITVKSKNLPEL
T1 sequence (P18177 544-799 limits assumed): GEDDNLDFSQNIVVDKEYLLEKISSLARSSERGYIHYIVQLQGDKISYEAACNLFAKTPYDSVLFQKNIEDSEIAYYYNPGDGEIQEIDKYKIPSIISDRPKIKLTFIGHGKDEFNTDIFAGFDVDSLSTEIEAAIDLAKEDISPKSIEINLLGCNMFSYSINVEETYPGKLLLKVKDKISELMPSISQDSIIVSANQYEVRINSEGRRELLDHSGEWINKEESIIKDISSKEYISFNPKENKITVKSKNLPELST
TcdB, sequence (P18177 2-2366 limits assumed): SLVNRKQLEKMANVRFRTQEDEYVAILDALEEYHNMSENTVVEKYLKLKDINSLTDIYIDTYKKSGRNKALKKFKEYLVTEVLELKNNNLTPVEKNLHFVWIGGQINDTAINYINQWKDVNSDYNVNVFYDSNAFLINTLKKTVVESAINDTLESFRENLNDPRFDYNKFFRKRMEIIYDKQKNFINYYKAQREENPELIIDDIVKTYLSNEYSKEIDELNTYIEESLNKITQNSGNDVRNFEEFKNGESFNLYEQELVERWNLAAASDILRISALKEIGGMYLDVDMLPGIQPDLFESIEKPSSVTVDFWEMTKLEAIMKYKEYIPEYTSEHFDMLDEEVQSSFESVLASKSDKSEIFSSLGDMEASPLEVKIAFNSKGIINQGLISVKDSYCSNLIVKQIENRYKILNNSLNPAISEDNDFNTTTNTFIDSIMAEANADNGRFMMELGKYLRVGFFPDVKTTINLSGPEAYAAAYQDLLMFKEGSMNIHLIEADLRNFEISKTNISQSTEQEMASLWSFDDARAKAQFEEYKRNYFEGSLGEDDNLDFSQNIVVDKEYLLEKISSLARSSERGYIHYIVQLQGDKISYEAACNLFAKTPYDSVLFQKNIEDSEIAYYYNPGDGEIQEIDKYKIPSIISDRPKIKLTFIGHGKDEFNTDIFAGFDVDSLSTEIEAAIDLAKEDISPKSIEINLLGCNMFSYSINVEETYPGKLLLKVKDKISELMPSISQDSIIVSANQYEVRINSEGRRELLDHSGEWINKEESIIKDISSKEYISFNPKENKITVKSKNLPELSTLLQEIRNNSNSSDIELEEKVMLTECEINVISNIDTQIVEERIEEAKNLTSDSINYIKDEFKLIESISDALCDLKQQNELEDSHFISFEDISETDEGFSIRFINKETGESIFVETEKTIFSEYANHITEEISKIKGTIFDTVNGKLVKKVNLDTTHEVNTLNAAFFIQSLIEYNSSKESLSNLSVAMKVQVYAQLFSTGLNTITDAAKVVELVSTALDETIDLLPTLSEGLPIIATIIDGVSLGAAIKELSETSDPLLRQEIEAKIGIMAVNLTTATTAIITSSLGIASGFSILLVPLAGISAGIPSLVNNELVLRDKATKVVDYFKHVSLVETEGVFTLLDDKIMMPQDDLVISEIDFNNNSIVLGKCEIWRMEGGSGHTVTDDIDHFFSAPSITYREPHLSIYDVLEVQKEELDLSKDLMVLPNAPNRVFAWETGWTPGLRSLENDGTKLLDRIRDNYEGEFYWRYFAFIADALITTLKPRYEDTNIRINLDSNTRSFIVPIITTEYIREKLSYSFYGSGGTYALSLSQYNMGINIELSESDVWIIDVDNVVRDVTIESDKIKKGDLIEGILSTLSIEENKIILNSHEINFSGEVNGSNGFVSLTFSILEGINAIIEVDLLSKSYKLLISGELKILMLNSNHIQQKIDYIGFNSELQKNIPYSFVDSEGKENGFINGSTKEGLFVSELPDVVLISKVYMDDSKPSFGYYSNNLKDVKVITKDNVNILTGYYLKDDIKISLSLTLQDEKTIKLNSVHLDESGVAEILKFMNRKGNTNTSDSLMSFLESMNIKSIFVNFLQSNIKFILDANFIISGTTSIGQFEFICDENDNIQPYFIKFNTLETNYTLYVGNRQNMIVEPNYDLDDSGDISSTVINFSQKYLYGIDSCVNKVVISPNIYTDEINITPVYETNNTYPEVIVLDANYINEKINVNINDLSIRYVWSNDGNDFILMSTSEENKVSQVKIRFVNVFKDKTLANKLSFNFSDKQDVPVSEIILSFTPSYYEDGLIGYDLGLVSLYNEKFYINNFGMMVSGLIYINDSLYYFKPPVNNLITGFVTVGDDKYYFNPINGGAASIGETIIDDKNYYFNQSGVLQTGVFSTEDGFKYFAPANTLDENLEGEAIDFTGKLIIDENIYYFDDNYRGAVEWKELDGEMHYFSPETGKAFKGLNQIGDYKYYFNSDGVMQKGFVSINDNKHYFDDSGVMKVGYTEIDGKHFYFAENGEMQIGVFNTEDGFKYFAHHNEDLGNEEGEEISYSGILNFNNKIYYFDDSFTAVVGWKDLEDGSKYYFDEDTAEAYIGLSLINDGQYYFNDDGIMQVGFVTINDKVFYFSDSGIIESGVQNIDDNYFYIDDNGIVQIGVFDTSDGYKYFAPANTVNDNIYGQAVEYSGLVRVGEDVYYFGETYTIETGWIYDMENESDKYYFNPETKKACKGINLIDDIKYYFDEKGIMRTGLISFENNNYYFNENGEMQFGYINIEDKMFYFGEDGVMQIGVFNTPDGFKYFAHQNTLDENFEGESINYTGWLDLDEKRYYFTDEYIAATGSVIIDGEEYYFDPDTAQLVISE

Row | Structure (SMILES) | IC50 (TcdB protease) [µM] | IC50 (TcdB CPD) [µM] | further results
1 | Cc1ccc(-n2[se]c3ccccc3c2=O)cc1 [MG-13, 2-(4-methylphenyl)-1,2-benzoselenazol-3-one] | 4.9 | – | –
2 | O=C(Nc1ccc(F)cc1F)c1ccccc1[Se][Se]c1ccccc1C(=O)Nc1ccc(F)cc1F [MG-33, 2,2′-diselane-1,2-diylbis[N-(2,4-difluorophenyl)benzamide]] | 2.7 | – | –
3 | COc1ccc(C)cc1-n1[se]c2ccccc2c1=O [MG-2, 2-(2-methoxy-5-methylphenyl)-1,2-benzoselenazol-3-one] | 5.58 | – | –
4 | COc1ccc(C(C)(C)C)cc1-n1[se]c2ccccc2c1=O [MG-8, 2-(2-methoxy-5-t-butylphenyl)-1,2-benzoselenazol-3-one] | 8.5 | – | –
5 | COCCNC(=O)Cn1sc2nc(C)cc(C)c2c1=O [STF 102766] | – | 2.38 | –
6 | Cc1c(Cl)cccc1NC(=O)c1ccccc1[Se][Se]c1ccccc1C(=O)Nc1cccc(Cl)c1C [MG-61, 2,2′-diselane-1,2-diylbis[N-(3-chloro-2-methylphenyl)benzamide]] | 5.97 | – | –
7 | O=C(Nc1ccc(F)c(Cl)c1)c1ccccc1[Se][Se]c1ccccc1C(=O)Nc1ccc(F)c(Cl)c1 [MG-43, 2,2′-diselane-1,2-diylbis[N-(3-chloro-4-fluorophenyl)benzamide]] | 5.09 | – | –
8 | O=C(Nc1ccccc1F)c1ccccc1[Se][Se]c1ccccc1C(=O)Nc1ccccc1F [MG-31, 2,2′-diselane-1,2-diylbis[N-(2-fluorophenyl)benzamide]] | 4.92 | – | –
9 | Cc1ccc(NC(=O)c2ccccc2[Se][Se]c2ccccc2C(=O)Nc2ccc(C)cc2Cl)c(Cl)c1 [MG-12, 2,2′-diselane-1,2-diylbis[N-(2-chloro-4-methylphenyl)benzamide]] | 3.98 | – | –
10 | COc1cccc(NC(=O)c2ccccc2[Se][Se]c2ccccc2C(=O)Nc2cccc(OC)c2)c1 [MG-56, 2,2′-diselane-1,2-diylbis[N-(3-methoxyphenyl)benzamide]] | 3.95 | – | –
11 | COc1ccc(Cl)cc1NC(=O)c1ccccc1[Se][Se]c1ccccc1C(=O)Nc1cc(Cl)ccc1OC [MG-7, 2,2′-diselane-1,2-diylbis[N-(5-chloro-2-methoxyphenyl)benzamide]] | 9.6 | – | –
12 | COc1ccc(-n2[se]c3ccccc3c2=O)c(C)c1 [MG-1, 2-(4-methoxy-2-methylphenyl)-1,2-benzoselenazol-3-one] | 6.47 | – | –
13 | COC(=O)N1CCN(C(=O)Cn2sc3nc(C)cc(C)c3c2=O)CC1 [STF 102635] | – | 4.84 | –
14 | O=C(Nc1ccc(F)cc1Cl)c1ccccc1[Se][Se]c1ccccc1C(=O)Nc1ccc(F)cc1Cl [MG-40, 2,2′-diselane-1,2-diylbis[N-(2-chloro-4-fluorophenyl)benzamide]] | 7.38 | – | –
15 | O=c1c2ccccc2[se]n1-c1ccccc1 [Ebselen, 2-phenyl-1,2-benzoselenazol-3-one] | 5.14 | – | changes in vital signs (clinical signs of toxin action) (TcdB; 72 hours): no significant changes in vital signs; survival rate (TcdB; monitored three days): 100%; IC50 (full length TcdB): 0.0172 µM; EC50 ([1]; read-out: EC50 of blocking cell rounding): 0.021 µM; EC50 ([1]; read-out: EC50 of protective effect against cell rounding): 0.217 µM
16 | O=c1c2ccccc2[se]n1-c1ccc(Cl)cc1F [MG-34, 2-(4-chloro-2-fluorophenyl)-1,2-benzoselenazol-3-one] | 6.5 | – | –
17 | Cc1cc(C)c2c(=O)n(CC(=O)NCCc3ccc(Cl)cc3)sc2n1 [STF 102655] | – | 3.14 | –
18 | Cc1cc(C)c2c(=O)n(CC(=O)NCCCSC3CCCCC3)sc2n1 [STF 102625] | – | 1.32 | –
19 | Cc1ccc(Cl)c(NC(=O)c2ccccc2[Se][Se]c2ccccc2C(=O)Nc2cc(C)ccc2Cl)c1 [MG-10, 2,2′-diselane-1,2 - diylbis[N-(2-chloro-5-methylphenyl)benzamide]] | 7.33 | – | –
20 | Cc1cc(C)c2c(=O)n(CC(=O)NC(C)CCc3ccccc3)sc2n1 (stereo not drawn) [STF 102645] | – | 3.99 | –
21 | CCOCCCNC(=O)Cn1sc2nc(C)cc(C)c2c1=O [STF 102644] | – | 2.81 | –
22 | CCCCNC(=O)Cn1sc2nc(C)cc(C)c2c1=O [STF 102686] | – | 1.98 | –
23 | Cc1cc(C)c2c(=O)n(CC(=O)NCc3ccc4c(c3)OCO4)sc2n1 [STF 102654] | – | 3.9 | –
24 | O=c1c2ccccc2[se]n1-c1ccccc1O [MG-174, 2-(2-hydroxyphenyl)-1,2-benzoselenazol-3-one] | 4.86 | – | –
25 | O=c1c2ccccc2[se]n1-c1ncccc1O [MG-48, 2-(3-hydroxypyridin-2-yl)-1,2-benzoselenazol-3-one] | 7.44 | – | –
